Experimental data from patent US5548064A, “Vitamin B12 conjugates with EPO, analogues thereof and pharmaceutical compositions” (Biotech Australia Pty Limited, priority 1993, dated 1996).

B1: GCSF-dithioproplonamido[12-aminododecylamido]-eVB12 (conjugate, UniProt P09919 31-207, looked up)
Granulocyte …: TPLGPASSLPQSFLLKCLEQVRKIQGDGAALQEKLVSECATYKLCHPEELVLLGHSLGIPWAPLSSCPSQALQLAGCLSQLHSGLFLYQGLLQALEGISPELGPTLDTLQLDVADFATTIWQQMEELGMAPALQPTQGAMPAFASAFQRRAGGVLVASHLQSFLEVSYRVLRHLAQP
modifications: disulphide-linked aminododecyl vitamin B12 conjugate
notes: GCSF linked by disulphide at Cys-17 to DTP-aminododecyl-eVB12 (section 1.7)
B2: GCSF-acylhydrazidyl-eVB12 (conjugate, UniProt P09919 31-207, looked up)
Granulocyte …: B1 Granulocyte …
modifications: hydrazide vitamin B12 conjugate
notes: EDAC-mediated conjugate of hydrazido-eVB12 with carboxyl groups of GCSF (section 1.11)
B3: GCSF-diothloproplonamido12-aminododecyl-suberyl-hexylamido-eVB12 (conjugate, UniProt P09919 31-207, looked up)
Granulocyte …: B1 Granulocyte …
modifications: disulphide-linked dodecylsuberylhexyl vitamin B12 conjugate
notes: GCSF linked by disulphide to DTP-dodecylsuberylhexyl-eVB12 (section 1.9)
B4: GCSF-acyl[adipyldihydrazidyl]-eVB12 (conjugate, UniProt P09919 31-207, looked up)
Granulocyte …: B1 Granulocyte …
modifications: adipyl-dihydrazide vitamin B12 conjugate
notes: EDAC-mediated conjugate of adipylhydrazido-eVB12 with GCSF (section 1.12)

Target: intrinsic factor (IF) (Homo sapiens, UniProt P27352)
Test: Relative intrinsic factor (IF) affinity of eVB12 analogues and complexes
Assay type: binding
Details: % of native eVB12
Source text: IF Affinity is expressed as a percentage of the affinity of the eVB12 derivative relative to native, unmodified VB12.

intrinsic factor (IF), sequence (P27352 19-417, species assumed): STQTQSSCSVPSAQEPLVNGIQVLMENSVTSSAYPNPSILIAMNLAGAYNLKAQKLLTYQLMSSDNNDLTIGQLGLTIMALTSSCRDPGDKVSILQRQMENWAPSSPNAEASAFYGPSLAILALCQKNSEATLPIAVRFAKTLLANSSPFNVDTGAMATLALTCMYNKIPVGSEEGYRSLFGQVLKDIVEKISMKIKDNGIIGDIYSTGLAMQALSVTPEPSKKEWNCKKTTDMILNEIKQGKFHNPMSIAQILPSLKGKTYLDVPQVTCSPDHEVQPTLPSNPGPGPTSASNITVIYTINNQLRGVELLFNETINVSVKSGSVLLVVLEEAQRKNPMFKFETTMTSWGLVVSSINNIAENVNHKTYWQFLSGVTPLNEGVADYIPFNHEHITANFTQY

With B1 the IF Affinity was 2-3%.

Same assay, conditions: percentage of the affinity of the eVB12 derivative relative to native, unmodified VB12

Point of comparison: EPO-acyl[adipyldlhydrazidyl]-eVB12, “IF Affinity” value 11%. Against it:
- hydrazidyl-eVB12 — higher, 100%
- EPO-acylhydrazidyl-eVB12 — lower, 6%
- dithlopropionamido[2-aminoethylamido]-eVB12 — lower, 6%
- dithiopropionamido[6-aminohexylamido]-eVB12 — lower, 7%
- 12-aminododecyl-suberyl-hexylamido-eVB12 — higher, 82%
- 2-aminoethylamido-eVB12 — higher, 48%
- eVB12 carboxylate — higher, 35%
- 6-aminohexylamido-eVB12 — higher, 91%
- dithioproplonamido[6-aminohexylamido]-eVB12 — the same, 11%
- 12-aminododecylamido-eVB12 — higher, 74%
- adipyldihydrazidyl-eVB12 — higher, 44%
- B1 — lower, 3%
- B2 — lower, 10%
- B3 — higher, 28%
- B4 — lower, 7%
